From US9617310B2 (priority 2013, dated 2017) come the findings set out here.

SMILES strings stand for the structures.

By EC50 is commonly meant the concentration giving half of the maximal effect. As a reminder, the Ki is the equilibrium dissociation constant of an inhibitor or competing ligand from its target. A high value points to lower affinity.

Assay [1] has as its system genotype 2a stable HCV replicon (JFH-1) in Huh-7-derived cells. The assay can be described thus: Stable subgenomic HCV replicon, genotype 2a, Renilla luciferase. It counts as cell-based. To be noted: Hepatitis C virus, stable replicon genotype 2a, 72 h, read-out: EC50 2A RLUC. How it is done:
(§1) Antiviral potency (EC50) was determined in both stable subgenomic HCV replicon cell lines and transient-transfected HCV replicon cells. The term half maximal effective concentration (EC50) refers to the concentration of a drug which induces a response halfway between the baseline and maximum after the exposure time specified below.
(§2) Stable subgenomic HCV replicons for genotype 1a, 1b, 2a, 3a, and 4a were established in Huh-7-derived cells as described by Lohmann et al (Lohmann V, Korner F, Koch J, et al Replication of subgenomic hepatitis C virus RNAs in a hepatoma cell line. Science 1999; 285:119-3). Each stable cell line contains a bicistronic HCV replicon that encodes a humanized Renilla luciferase (hRLuc) reporter gene fused to a selectable neomycin-resistance gene, followed by an EMCV IRES and the NS3-NS5B coding region of HCV. […] Luciferase activity was measured as a marker for intracellular HCV replication levels.
(§3) The genotype 1a stable replicon was derived from the H77 HCV strain and contained adaptive mutations P1496L and S2204I. The genotype 1b stable replicon was derived from the Con1 HCV strain and contained adaptive mutations E1202G, T1280I, and K1846T. […] The genotype 3a stable replicon was derived from the S52 HCV strain and contained adaptive mutations P1121 L, A1198T and S2210I (equivalent to S2204I in genotype 1). The genotype 4a stable replicon was derived from the ED43 HCV strain and contained adaptive mutations Q1691R and S2204I. All replicon cell lines were propagated in Huh-7-derived cells and maintained in Dulbecco's modified Eagle's Medium (DMEM) supplemented with 10% fetal bovine serum (FBS) and 0.5 mg/ml G418.
(§4) To perform EC50 assays, cells from each HCV replicon were dispensed into 384-well plates. Compounds were dissolved in DMSO at a concentration of 10 mM and diluted in DMSO using an automated pipetting instrument. Three-fold serially diluted compounds were directly added to the cells using an automated instrument. DMSO was used as a negative (solvent; no inhibition) control, and a combination of three HCV inhibitors including a protease inhibitor; an NS5A inhibitor and a nucleoside inhibitor was used at concentrations >100×EC50 as a positive control (100% inhibition). Seventy-two hours later, cells were lysed and Renilla luciferase activity were quantified as recommended by the manufacturer (Promega-Madison, Wis.). Non-linear regression was performed to calculate […], values.
On the technique in general: In antiviral work, replicon cells carry a viral genome segment that copies itself.

For assay [2], the system named is genotype 1b stable HCV replicon (Con1) in Huh-7-derived cells. The assay can be described thus: Stable subgenomic HCV replicon, genotype 1b, Renilla luciferase. It counts as cell-based. To be noted: Hepatitis C virus, stable replicon genotype 1b, 72 h, read-out: EC50 1B RLUC. The method, then:
as §1, §2, §3, §4

A further assay deals with T1, NS3 genotype 3a protease (UniProt Q81258).
T1 construct: Purified NS3 protease domain (amino acids 1-181) of the genotype 1b and 3a virus were generated as above; fused on or other part: N-terminal hexahistidine tag with an rTEV protease cleavage site (vector p28-N6H-Tev-NS3(181)3)
T1 sequence (Q81258 1033-1663): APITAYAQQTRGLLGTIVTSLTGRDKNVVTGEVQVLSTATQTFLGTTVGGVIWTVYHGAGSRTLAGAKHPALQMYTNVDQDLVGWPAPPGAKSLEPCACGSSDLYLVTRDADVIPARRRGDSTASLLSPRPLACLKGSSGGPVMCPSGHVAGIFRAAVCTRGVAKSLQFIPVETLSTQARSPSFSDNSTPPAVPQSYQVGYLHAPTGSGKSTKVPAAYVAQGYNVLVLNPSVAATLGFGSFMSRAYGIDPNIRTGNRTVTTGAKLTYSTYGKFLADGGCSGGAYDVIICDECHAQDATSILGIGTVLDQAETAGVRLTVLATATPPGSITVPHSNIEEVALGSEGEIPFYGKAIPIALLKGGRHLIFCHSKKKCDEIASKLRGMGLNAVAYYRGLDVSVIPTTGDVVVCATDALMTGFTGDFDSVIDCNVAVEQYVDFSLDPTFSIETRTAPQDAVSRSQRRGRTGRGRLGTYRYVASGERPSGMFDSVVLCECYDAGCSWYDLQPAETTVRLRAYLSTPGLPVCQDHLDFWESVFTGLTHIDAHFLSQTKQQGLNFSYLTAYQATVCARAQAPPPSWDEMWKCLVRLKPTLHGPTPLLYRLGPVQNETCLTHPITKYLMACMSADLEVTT
The assay can be described thus: Ki determination, NS3 protease genotype 3a (fluorogenic depsipeptide substrate). It counts as biochemical, hepatitis C virus. To be noted: NS3 protease domain genotype 3a, NS4A peptide. An excerpt:
Ki Determination for Genotypes 1b and 3a NS3 Protease.
Purified NS3 protease domain (amino acids 1-181) of the genotype 1b and 3a virus were generated as above. The internally quenched fluorogenic depsipeptide substrate Ac-DED(Edans)-EEAbuψ[COO]ASK(Dabcyl)-NH2 and a synthetic peptide containing the hydrophobic core residues of the NS4A protein cofactor ([…]; NS4A peptide) were obtained from Anaspec, Inc. (San Jose, Calif.). Other chemicals and biochemicals were of reagent grade or better and were purchased from standard suppliers.
Reactions were run at room temperature in buffer consisting of 50 mM HEPES, 40% glycerol, 0.05% Triton X-100, 10 mM DTT, and 10% DMSO. The final assay solutions contained 50 pM NS3 genotype 1b protease or 200 pM genotype 3a protease, 20 μM NS4A peptide, and 4 μM substrate (genotype 1b) or 2 μM substrate (genotype 3a). Inhibitor concentrations varied from 100 nM to 5 pM in 3-fold dilutions, and no-inhibitor controls were included.
Compound dilutions were made in DMSO at 20× final concentration. Reaction mixtures were prepared in 96-well assay plates. A solution of enzyme and NS4A peptide in assay buffer (25 μL volume with both reagents at 4× final concentration) was mixed with 45 μL assay buffer and 5 μL of either inhibitor or DMSO, and pre-incubated at room temperature for 1 hour. The reaction was started by addition of 25 μL substrate solution at 4× final concentration. Plates were mixed vigorously for 5-10 seconds and reactions were allowed to proceed for 90 minutes. Fluorescence was measured every 30 s between 90 and 120 minutes reaction time using a Tecan InfiniTe M1000 or PerkinElmer Envision multimode plate reader with an excitation wavelength of 340 nm and an emission wavelength of 490 nm.
Rates were calculated from the progress curves at steady state, in the time frame of 90-120 minutes after addition of substrate. To determine the Ki, rates were plotted as a function of inhibitor concentration, and the data were fit with equation 1 (Morrison, J. F., Biochimica et Biophysica Acta 1969, 185, 269-286) to calculate Ki^app using GraphPad Prism 5. Active fraction of enzyme was determined by active site titration with known potent inhibitors. Ki was calculated from Ki^app/(1+[[S]/Km]).

The test system of assay [3] is genotype 3a stable HCV replicon (S52) in Huh-7-derived cells. Description: Stable subgenomic HCV replicon, genotype 3a, Renilla luciferase. It counts as cell-based. To be noted: Hepatitis C virus, 72 h, read-out: EC50 3A RLUC. How it is done: as §1, §2, §3, §4
Assay [4] deals with NS3/4a protease inhibitor resistant variant D168A in genotype 1b transient HCV replicon. Description: Transient-transfected HCV replicon, genotype 1b D168A. It counts as cell-based. To be noted: Hepatitis C virus, 72 h, read-out: EC50 1B D168A.

For the compound `COc1ccc2nc3c(nc2c1)O[C@@H]1C[C@@H](C(=O)N[C@]2(C(=O)NS(=O)(=O)C4CC4)C[C@H]2C(F)F)N(C1)C(=O)[C@H](C(C)(C)C)NC(=O)O[C@@H]1C[C@@H]2C[C@@H]2[C@H]1CCCCC3(F)F` (racemic) [Example 9, (1aS,2aR,6S,9S,11R,23aR,23bS)-6-tert-butyl-N-[(1R,2R)-1-[(cyclopropylsulfonyl)carbamoyl]-2-(difluoromethyl)cyclopropyl]-19,19-difluoro-15-methoxy-4,7-dioxo-1a,2,2a,4,5,6,7,10,11,19,20,21,22,23,23a,23b-hexadecahydro-1H,9H-8,11-methanocyclopropa[4′,5′]cyclopenta[1′,2′:18,19][1,10,3,6]dioxadiazacyclononadecino[11,12-b]quinoxaline-9-carboxamide], the half-maximal effective concentration (EC50) in assay [1] turned out to be 2.3 nM; in assay [2] it was 1.5 nM; in assay [3], 6.6 nM; in assay [4] it was 1.1 nM. For the same compound, the Ki at NS3 genotype 3a protease was 0.02 nM.
As to `CC(C)(C)[C@@H]1NC(=O)O[C@@H]2C[C@@H]3C[C@@H]3[C@H]2CCCCC(F)(F)c2nc3cc(F)c(F)cc3nc2O[C@@H]2C[C@@H](C(=O)N[C@]3(C(=O)NS(=O)(=O)C4CC4)C[C@H]3C(F)F)N(C2)C1=O` (racemic) [Example 15, (1aS,2aR,6S,9S,11R,23aR,23bS)-6-tert-butyl-N-[(1R,2R)-1-[(cyclopropylsulfonyl)carbamoyl]-2-(difluoromethyl)cyclopropyl]-15,16,19,19-tetrafluoro-4,7-dioxo-1a,2,2a,4,5,6,7,10,11,19,20,21,22,23,23a,23b-hexadecahydro-1H,9H-8,11-methanocyclopropa[4′,5′]cyclopenta[1′,2′:18,19][1,10,3,6]dioxadiazacyclononadecino[11,12-b]quinoxaline-9-carboxamide], the EC50 in assay [1] was 3.3 nM; in assay [2] it was 3.4 nM; in assay [3], 30 nM; in assay [4], 4.7 nM. Moreover, at NS3 genotype 3a protease, the affinity corresponds to a Ki of 0.05 nM.
Taken in the same sequence, the figures for `COc1ccc2nc3c(nc2c1)O[C@@H]1C[C@@H](C(=O)N[C@]2(C(=O)NS(=O)(=O)C4CC4)C[C@H]2C(F)F)N(C1)C(=O)[C@H](C(C)(C)C)NC(=O)O[C@@H]1C[C@@H]2C[C@@H]2[C@H]1CCCCC3` [Example 1, (1aS,2aR,6S,9S,11R,23aR,23bS)-6-tert-butyl-N-[(1R,2R)-1-[(cyclopropylsulfonyl)carbamoyl]-2-(difluoromethyl)cyclopropyl]-15-methoxy-4,7-dioxo-1a,2,2a,4,5,6,7,10,11,19,20,21,22,23,23a,23b-hexadecahydro-1H,9H-8,11-methanocyclopropa[4′,5′]cyclopenta[1′,2′:18,19][1,10,3,6]dioxadiazacyclononadecino[11,12-b]quinoxaline-9-carboxamide] were 2.5 nM, 0.99 nM, 23 nM, 4.6 nM and 0.03 nM.
Regarding `COc1ccc2nc3c(nc2c1)O[C@@H]1C[C@@H](C(=O)N[C@]2(C(=O)NS(=O)(=O)C4(C)CC4)C[C@H]2C(F)F)N(C1)C(=O)[C@H](C(C)(C)C)NC(=O)O[C@@H]1C[C@@H]2C[C@@H]2[C@H]1CCCCC3` [Example 2, (1aS,2aR,6S,9S,11R,23aR,23bS)-6-tert-butyl-N-[(1R,2R)-2-(difluoromethyl)-1-{[(1-methylcyclopropyl)sulfonyl]carbamoyl}cyclopropyl]-15-methoxy-4,7-dioxo-1a,2,2a,4,5,6,7,10,11,19,20,21,22,23,23a,23b-hexadecahydro-1H,9H-8,11-methanocyclopropa[4′,5′]cyclopenta[1′,2′18,19][1,10,3,6]dioxadiazacyclononadecino[11,12-b]quinoxaline-9-carboxamide], the concentration for a half-maximal effect (EC50) in assay [1] is 1.82 nM; in assay [2], 1 nM; in assay [3], 17 nM; in assay [4], 3.2 nM. The Ki on NS3 genotype 3a protease was found to be 0.04 nM.
For the compound `COc1ccc2nc3c(nc2c1)O[C@@H]1C[C@@H](C(=O)N[C@]2(C(=O)NS(=O)(=O)C4CC4)C[C@H]2CC(F)F)N(C1)C(=O)[C@H](C(C)(C)C)NC(=O)O[C@@H]1C[C@@H]2C[C@@H]2[C@H]1CCCCC3` [Example 3, (1aS,2aR,6S,9S,11R,23aR,23bS)-6-tert-butyl-N-[(1R,2S)-1-[(cyclopropylsulfonyl)carbamoyl]-2-(2,2-difluoroethyl)cyclopropyl]-15-methoxy-4,7-dioxo-1a,2,2a,4,5,6,7,10,11,19,20,21,22,23,23a,23b-hexadecahydro-1H,9H-8,11-methanocyclopropa[4′,5′]cyclopenta[1′,2′:18,19][1,10,3,6]dioxadiazacyclononadecino[11,12-b]quinoxaline-9-carboxamide], the concentration giving a half-maximal response (EC50) was 15 nM in assay [1], 3.2 nM in assay [2], 194 nM in assay [3] and 50 nM in assay [4]. Further, the Ki at NS3 genotype 3a protease was determined as 0.21 nM.
